What was measured:
[1] = biological target: T1, Peroxisome proliferator-activated receptor gamma (Homo sapiens, UniProt P37231); assay: Agonist activity at PPARgamma transfected in HEK293 cells; type: functional, cell-based
T1 sequence (P37231 whole entry): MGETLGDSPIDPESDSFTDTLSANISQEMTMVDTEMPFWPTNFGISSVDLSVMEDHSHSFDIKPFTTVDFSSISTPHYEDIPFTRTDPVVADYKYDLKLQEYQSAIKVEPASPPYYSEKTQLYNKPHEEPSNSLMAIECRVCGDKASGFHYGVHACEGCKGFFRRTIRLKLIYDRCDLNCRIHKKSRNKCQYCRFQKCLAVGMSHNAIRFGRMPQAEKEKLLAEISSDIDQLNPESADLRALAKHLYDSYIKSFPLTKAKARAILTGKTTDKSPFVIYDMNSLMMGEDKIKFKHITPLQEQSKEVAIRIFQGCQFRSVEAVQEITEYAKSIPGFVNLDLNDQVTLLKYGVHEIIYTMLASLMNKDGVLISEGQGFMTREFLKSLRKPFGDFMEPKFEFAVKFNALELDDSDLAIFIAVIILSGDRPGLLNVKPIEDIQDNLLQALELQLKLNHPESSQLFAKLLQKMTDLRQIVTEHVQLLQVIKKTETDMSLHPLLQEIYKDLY

[2] = biological target: T2, Peroxisome proliferator-activated receptor alpha (Homo sapiens, UniProt Q07869); assay: Agonist activity at PPARalpha transfected in HEK293 cells; type: functional, cell-based
T2 sequence (Q07869 whole entry): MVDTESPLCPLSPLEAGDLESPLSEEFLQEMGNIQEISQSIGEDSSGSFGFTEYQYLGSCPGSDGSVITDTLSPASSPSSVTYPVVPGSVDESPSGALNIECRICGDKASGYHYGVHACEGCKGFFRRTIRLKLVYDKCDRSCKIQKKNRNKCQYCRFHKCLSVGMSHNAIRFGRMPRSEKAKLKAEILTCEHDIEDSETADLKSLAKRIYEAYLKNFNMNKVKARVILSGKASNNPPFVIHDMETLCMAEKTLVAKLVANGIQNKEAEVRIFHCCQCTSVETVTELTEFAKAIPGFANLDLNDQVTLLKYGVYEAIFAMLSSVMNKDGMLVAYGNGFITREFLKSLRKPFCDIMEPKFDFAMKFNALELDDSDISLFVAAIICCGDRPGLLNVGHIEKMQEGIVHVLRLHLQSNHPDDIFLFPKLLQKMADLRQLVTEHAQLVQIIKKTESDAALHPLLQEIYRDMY

[3] = biological target: T3, Peroxisome proliferator-activated receptor delta (Homo sapiens, UniProt Q03181); assay: Agonist activity at PPARdelta transfected in HEK293 cells; type: functional, cell-based
T3 sequence (Q03181 whole entry): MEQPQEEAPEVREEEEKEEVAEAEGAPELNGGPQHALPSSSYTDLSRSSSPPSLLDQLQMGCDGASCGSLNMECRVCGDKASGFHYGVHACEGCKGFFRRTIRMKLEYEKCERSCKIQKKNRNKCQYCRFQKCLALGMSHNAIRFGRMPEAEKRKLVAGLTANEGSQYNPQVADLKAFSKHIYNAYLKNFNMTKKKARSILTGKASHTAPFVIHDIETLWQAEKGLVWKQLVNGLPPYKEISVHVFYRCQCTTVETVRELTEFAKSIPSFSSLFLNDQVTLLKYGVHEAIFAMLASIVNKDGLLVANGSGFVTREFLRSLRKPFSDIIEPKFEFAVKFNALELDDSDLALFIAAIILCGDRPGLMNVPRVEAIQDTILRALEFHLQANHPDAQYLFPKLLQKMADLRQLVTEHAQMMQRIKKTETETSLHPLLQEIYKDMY

[4] = biological target: T2, Peroxisome proliferator-activated receptor alpha; assay: Agonist activity at PPARalpha transfected in HEK293 cells at 1 uM; type: functional, cell-based
[5] = biological target: T3, Peroxisome proliferator-activated receptor delta; assay: Agonist activity at PPARdelta transfected in HEK293 cells at 1 uM; type: functional, cell-based
[6] = biological target: T1, Peroxisome proliferator-activated receptor gamma; assay: Agonist activity at PPARgamma transfected in HEK293 cells at 1 uM; type: functional, cell-based
[7] = biological target: T4, Peroxisome proliferator-activated receptor alpha (Mus musculus, UniProt P23204); assay: Agonist activity at mouse PPARalpha transfected in HEK293 cells; type: functional, cell-based
T4 sequence (P23204 whole entry): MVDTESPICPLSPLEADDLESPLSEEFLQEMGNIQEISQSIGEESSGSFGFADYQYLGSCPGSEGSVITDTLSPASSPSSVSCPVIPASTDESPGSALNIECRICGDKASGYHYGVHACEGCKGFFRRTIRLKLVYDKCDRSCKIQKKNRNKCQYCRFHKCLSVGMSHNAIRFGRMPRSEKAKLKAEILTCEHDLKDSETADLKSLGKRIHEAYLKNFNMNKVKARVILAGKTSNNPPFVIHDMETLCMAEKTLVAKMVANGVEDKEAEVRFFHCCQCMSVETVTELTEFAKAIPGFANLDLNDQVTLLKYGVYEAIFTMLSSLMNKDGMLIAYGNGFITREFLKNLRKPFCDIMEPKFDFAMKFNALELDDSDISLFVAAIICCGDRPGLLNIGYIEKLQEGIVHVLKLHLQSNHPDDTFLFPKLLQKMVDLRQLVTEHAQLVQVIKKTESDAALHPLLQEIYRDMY

[8] = biological target: T5, Peroxisome proliferator-activated receptor delta (Mus musculus, UniProt P35396); assay: Agonist activity at mouse PPARdelta transfected in HEK293 cells; type: functional, cell-based
T5 sequence (P35396 whole entry): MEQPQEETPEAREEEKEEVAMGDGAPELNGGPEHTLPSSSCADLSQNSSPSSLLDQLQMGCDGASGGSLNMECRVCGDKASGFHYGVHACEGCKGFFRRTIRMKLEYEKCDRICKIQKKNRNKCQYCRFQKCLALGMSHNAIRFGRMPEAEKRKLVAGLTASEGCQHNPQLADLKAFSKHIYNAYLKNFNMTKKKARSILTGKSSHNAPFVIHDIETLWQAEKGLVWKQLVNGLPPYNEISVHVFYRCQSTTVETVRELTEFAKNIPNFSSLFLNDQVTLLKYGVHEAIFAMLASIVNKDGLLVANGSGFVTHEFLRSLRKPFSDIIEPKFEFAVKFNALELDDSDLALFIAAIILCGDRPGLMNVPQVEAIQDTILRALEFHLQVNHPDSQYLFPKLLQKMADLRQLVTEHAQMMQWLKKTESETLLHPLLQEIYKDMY

[9] = biological target: Peroxisome proliferator-activated receptor alpha (Homo sapiens, UniProt Q07869, I272F); assay: Agonist activity at human PPARalpha containing mutant I272F domain transfected in HEK293 cells
Peroxisome proliferator-activated receptor alpha (Homo sapiens, UniProt Q07869, I272F), sequence (Q07869 whole entry I272F, the tested form may be a part): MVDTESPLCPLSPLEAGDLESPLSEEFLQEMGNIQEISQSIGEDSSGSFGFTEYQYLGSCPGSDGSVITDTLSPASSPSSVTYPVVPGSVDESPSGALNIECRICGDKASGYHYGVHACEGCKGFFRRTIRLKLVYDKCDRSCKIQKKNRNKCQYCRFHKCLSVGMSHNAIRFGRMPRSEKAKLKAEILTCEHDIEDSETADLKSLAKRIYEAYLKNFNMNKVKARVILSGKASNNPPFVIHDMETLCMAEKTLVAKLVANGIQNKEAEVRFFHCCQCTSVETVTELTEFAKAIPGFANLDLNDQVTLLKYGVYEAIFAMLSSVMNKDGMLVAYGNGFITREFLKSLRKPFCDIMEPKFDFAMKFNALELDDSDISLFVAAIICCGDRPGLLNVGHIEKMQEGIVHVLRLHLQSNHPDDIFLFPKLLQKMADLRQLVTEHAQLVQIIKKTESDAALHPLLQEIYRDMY

Row | SMILES | EC50 [1] [nM] | EC50 [2] [nM] | EC50 [3] [nM] | other results
1 | CC[C@H](Cc1ccc(OC)c(CNC(=O)c2ccc(C(F)(F)F)c(F)c2)c1)C(=O)O | > 10000 | 180 | 700 | –
2 | CCC(Cc1ccc(OC)c(C(=O)NCc2ccc(C(F)(F)F)cc2)c1)C(=O)O (racemic) | – | 70 | 700 | –
3 | CCC(Cc1ccc(OC)c(C(=O)NCc2ccc(C(F)(F)F)cc2F)c1)C(=O)O (stereo not drawn) | 500 | 20 | 1000 | –
4 | CCC(Cc1ccc(F)c(C(=O)NCc2ccc(C(F)(F)F)cc2)c1)C(=O)O (stereo not drawn) | – | – | – | EC50 [4]: Not Active; EC50 [5]: Not Active; EC50 [6]: Not Active

Second part, led by results:

Row | EC50 [1] [nM] | EC50 [2] [nM] | EC50 [3] [nM] | SMILES | other results
5 | > 10000 | – | – | CCC(Cc1ccc(OC)c(CNC(=O)c2ccc(F)c(C(F)(F)F)c2)c1)C(=O)O (stereo not drawn) | –
6 | 1600 | 25 | 500 | CCC(Cc1ccc(OC)c(C(=O)NCc2ccc(C(F)(F)F)c(F)c2)c1)C(=O)O (stereo not drawn) | –
7 | – | 10 | 40 | CC[C@@H](Cc1ccc(OC)c(CNC(=O)c2ccc(C(F)(F)F)c(F)c2)c1)C(=O)O | EC50 [7]: 1000 nM; EC50 [8]: 130 nM; EC50 [9]: 630 nM
8 | 2000 | 10 | 130 | CCC(Cc1ccc(OC)c(CNC(=O)c2ccc(C(F)(F)F)cc2)c1)C(=O)O (stereo not drawn) | –

— ChEMBL document CHEMBL1149404, “Design and synthesis of substituted phenylpropanoic acid derivatives as human peroxisome proliferator-activated receptor alpha/delta dual agonists” (Bioorg Med Chem Lett, 2006)
